Data from patent US11000033B2, “Ketone or oxime compound, and herbicide” (NISSAN CHEMICAL CORPORATION, priority 2014, dated 2021).

Legend:
Type in all cases: in vivo
[1] = system: directly sowed rice plant; test: Test Example 3: effect on crop by foliage application, Wagner pot (symbol b); conditions: application herbicide amount 320 g/ha, Table 24
How it was run: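 Greenhouse culture at 25–30 °C of seeded rice, Cyperus difformis, Leptochloa chinensis and Echinochloa crus-galli var. crus-galli, in alluvial soil held under 0.1–0.5 cm of water in a Wagner pot.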

[2] = system: Digitaria ciliaris; test: Test Example 4: herbicidal effect by soil treatment (symbol F); conditions: application herbicide amount 320 g/ha
How it was run: (§1)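 Seeds were sown in sterilized diluvial soil, covered with about 1.5 cm of soil, and the soil surface was sprayed with a water-diluted emulsion of the compound at a predetermined rate. Plants grew in a greenhouse at 25° C. to 30° C.; effects were scored visually 3 weeks after application.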

[3] = system: Echinochloa crus-galli var. crus-galli; test: Test Example 4: herbicidal effect by soil treatment (symbol H); conditions: application herbicide amount 320 g/ha
How it was run: as §1

[4] = system: Alopecurus myosuroides; test: Test Example 4: herbicidal effect by soil treatment (symbol J); conditions: application herbicide amount 320 g/ha
How it was run: as §1

[5] = system: Lolium multiflorum Lam.; test: Test Example 4: herbicidal effect by soil treatment (symbol K); conditions: application herbicide amount 320 g/ha
How it was run: as §1

[6] = system: Stellaria media; test: Test Example 4: herbicidal effect by soil treatment (symbol P); conditions: application herbicide amount 320 g/ha
How it was run: as §1

[7] = system: Galium spurium; test: Test Example 4: herbicidal effect by soil treatment (symbol Q); conditions: application herbicide amount 320 g/ha
How it was run: as §1

[8] = system: Veronica persica; test: Test Example 4: herbicidal effect by soil treatment (symbol R); conditions: application herbicide amount 320 g/ha
How it was run: as §1

[9] = system: corn; test: Test Example 4: effect on crop by soil treatment (symbol c); conditions: application herbicide amount 320 g/ha
How it was run: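 Steps: fill box with sterilized diluvial soil; sow seed spot-like; cover with ~1.5 cm soil; grow in greenhouse (25° C. to 30° C.).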

[10] = system: soybean; test: Test Example 4: effect on crop by soil treatment (symbol d); conditions: application herbicide amount 320 g/ha
How it was run: (§2)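 Crop seeds, among them rice, wheat, beet and rapeseed, were sown in sterilized diluvial soil and covered with about 1.5 cm of soil. Boxes were kept in a greenhouse at 25° C. to 30° C. for plant growth.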

[11] = system: rice; test: Test Example 4: effect on crop by soil treatment (symbol b); conditions: application herbicide amount 320 g/ha
How it was run: as §2

[12] = system: beet; test: Test Example 4: effect on crop by soil treatment (symbol f); conditions: application herbicide amount 320 g/ha
How it was run: as §2

[13] = system: rapeseed; test: Test Example 4: effect on crop by soil treatment (symbol g); conditions: application herbicide amount 320 g/ha
How it was run: as §2

[14] = system: Digitaria ciliaris; test: Test Example 5: herbicidal effect by foliage application, plastic box (symbol F); conditions: 320 g/ha, 3 weeks after application
How it was run: (§3)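 After sowing into sterilized diluvial soil and growing two weeks under glass at 25° C. to 30° C., seedlings receive a uniform foliar spray of diluted emulsion. Damage is judged visually three weeks on.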

[15] = system: Setaria viridis; test: Test Example 5: herbicidal effect by foliage application, plastic box (symbol G); conditions: 320 g/ha, 3 weeks after application
How it was run: as §3

[16] = system: Avena fatua; test: Test Example 5: herbicidal effect by foliage application, plastic box (symbol I); conditions: 320 g/ha, 3 weeks after application
How it was run: as §3

[17] = system: Apera spica-venti; test: Test Example 5: herbicidal effect by foliage application, plastic box (symbol L); conditions: 320 g/ha, 3 weeks after application
How it was run: as §3

[18] = system: Abutilon theophrasti; test: Test Example 5: herbicidal effect by foliage application, plastic box (symbol M); conditions: 320 g/ha, 3 weeks after application
How it was run: as §3

[19] = system: Chenopodium album; test: Test Example 5: herbicidal effect by foliage application, plastic box (symbol O); conditions: 320 g/ha, 3 weeks after application
How it was run: as §3

[20] = system: Stellaria media; test: Test Example 5: herbicidal effect by foliage application, plastic box (symbol P); conditions: 320 g/ha, 3 weeks after application
How it was run: as §3

[21] = system: Galium spurium; test: Test Example 5: herbicidal effect by foliage application, plastic box (symbol Q); conditions: 320 g/ha, 3 weeks after application
How it was run: as §3

[22] = system: Veronica persica; test: Test Example 5: herbicidal effect by foliage application, plastic box (symbol R); conditions: 320 g/ha, 3 weeks after application
How it was run: as §3

[23] = system: rice plant; test: Test Example 5: effect on crop by foliage application, plastic box (symbol b); conditions: 320 g/ha, 3 weeks after application
How it was run: (§4)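 Box culture: sterile diluvial soil, seeds spot-sown, ~1.5 cm cover, raised under glass at 25–30° C.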

[24] = system: wheat; test: Test Example 5: effect on crop by foliage application, plastic box (symbol e); conditions: 320 g/ha, 3 weeks after application
How it was run: as §4

[25] = system: beet; test: Test Example 5: effect on crop by foliage application, plastic box (symbol f); conditions: 320 g/ha, 3 weeks after application
How it was run: as §4

Cc1cc(Br)cc(C)c1C1=C(O)CC(CC(=O)C(C)C)C1=O (racemic) [10-003]
b (directly sowed rice plant) effect on crop grade [1]: 5 (Herbicidal ratio of 90% or more (almost completely withered)) | Herbicidal effect grade, F: Digitaria ciliaris [2]: 0 (Herbicidal ratio of 5% or lower (almost no effect)) | Herbicidal effect grade, H: Echinochloa crus-galli var. crus-galli [3]: 5 (Herbicidal ratio of 90% or more (almost completely withered)) | Herbicidal effect grade, J: Alopecurus myosuroides [4]: 3 (Herbicidal ratio of 40% or higher and lower than 70%) | Herbicidal effect grade, K: Lolium multiflorum Lam. [5]: 4 (Herbicidal ratio of 70% or higher and lower than 90%) | Herbicidal effect grade, P: Stellaria media [6]: 0 (Herbicidal ratio of 5% or lower (almost no effect)) | Herbicidal effect grade, Q: Galium spurium [7]: 0 (Herbicidal ratio of 5% or lower (almost no effect)) | Herbicidal effect grade, R: Veronica persica [8]: 0 (Herbicidal ratio of 5% or lower (almost no effect)) | Effect on crop grade, c: corn [9]: 0 (Herbicidal ratio of 5% or lower (almost no effect)) | Effect on crop grade, d: soybean [10]: 0 (Herbicidal ratio of 5% or lower (almost no effect)) | Effect on crop grade, b: directly sowed rice plant [11]: 4 (Herbicidal ratio of 70% or higher and lower than 90%) | Effect on crop grade, f: beet [12]: 0 (Herbicidal ratio of 5% or lower (almost no effect)) | Effect on crop grade, g: rapeseed [13]: 0 (Herbicidal ratio of 5% or lower (almost no effect)) | F: Digitaria ciliaris, herbicidal effect grade [14]: 3 (Herbicidal ratio of 40% or higher and lower than 70%) | G: Setaria viridis, herbicidal effect grade [15]: 5 (Herbicidal ratio of 90% or more (almost completely withered)) | I: Avena fatua, herbicidal effect grade [16]: 3 (Herbicidal ratio of 40% or higher and lower than 70%) | L: Apera spica-venti, herbicidal effect grade [17]: 3 (Herbicidal ratio of 40% or higher and lower than 70%) | M: Abutilon theophrasti, herbicidal effect grade [18]: 0 (Herbicidal ratio of 5% or lower (almost no effect)) | O: Chenopodium album, herbicidal effect grade [19]: 0 (Herbicidal ratio of 5% or lower (almost no effect)) | P: Stellaria media, herbicidal effect grade [20]: 0 (Herbicidal ratio of 5% or lower (almost no effect)) | Q: Galium spurium, herbicidal effect grade [21]: 0 (Herbicidal ratio of 5% or lower (almost no effect)) | R: Veronica persica, herbicidal effect grade [22]: 0 (Herbicidal ratio of 5% or lower (almost no effect)) | b: directly sowed rice plant, effect on crop grade [23]: 4 (Herbicidal ratio of 70% or higher and lower than 90%) | e: wheat, effect on crop grade [24]: 0 (Herbicidal ratio of 5% or lower (almost no effect)) | f: beet, effect on crop grade [25]: 0 (Herbicidal ratio of 5% or lower (almost no effect))

COc1cc(Br)cc(C)c1C1=C(O)CC(CC(=O)C2CC2)C1=O (racemic) [14-001]
b (directly sowed rice plant) effect on crop grade [1]: 5 (Herbicidal ratio of 90% or more (almost completely withered)) | F: Digitaria ciliaris, herbicidal effect grade [2]: 5 (Herbicidal ratio of 90% or more (almost completely withered)) | H: Echinochloa crus-galli var. crus-galli, herbicidal effect grade [3]: 5 (Herbicidal ratio of 90% or more (almost completely withered)) | J: Alopecurus myosuroides, herbicidal effect grade [4]: 5 (Herbicidal ratio of 90% or more (almost completely withered)) | K: Lolium multiflorum Lam., herbicidal effect grade [5]: 5 (Herbicidal ratio of 90% or more (almost completely withered)) | P: Stellaria media, herbicidal effect grade [6]: 0 (Herbicidal ratio of 5% or lower (almost no effect)) | Q: Galium spurium, herbicidal effect grade [7]: 0 (Herbicidal ratio of 5% or lower (almost no effect)) | R: Veronica persica, herbicidal effect grade [8]: 0 (Herbicidal ratio of 5% or lower (almost no effect)) | c: corn, effect on crop grade [9]: 5 (Herbicidal ratio of 90% or more (almost completely withered)) | d: soybean, effect on crop grade [10]: 0 (Herbicidal ratio of 5% or lower (almost no effect)) | b: directly sowed rice plant, effect on crop grade [11]: 5 (Herbicidal ratio of 90% or more (almost completely withered)) | f: beet, effect on crop grade [12]: 0 (Herbicidal ratio of 5% or lower (almost no effect)) | g: rapeseed, effect on crop grade [13]: 0 (Herbicidal ratio of 5% or lower (almost no effect)) | F: Digitaria ciliaris, herbicidal effect grade [14]: 5 (Herbicidal ratio of 90% or more (almost completely withered)) | G: Setaria viridis, herbicidal effect grade [15]: 5 (Herbicidal ratio of 90% or more (almost completely withered)) | I: Avena fatua, herbicidal effect grade [16]: 5 (Herbicidal ratio of 90% or more (almost completely withered)) | L: Apera spica-venti, herbicidal effect grade [17]: 5 (Herbicidal ratio of 90% or more (almost completely withered)) | M: Abutilon theophrasti, herbicidal effect grade [18]: 4 (Herbicidal ratio of 70% or higher and lower than 90%) | O: Chenopodium album, herbicidal effect grade [19]: 0 (Herbicidal ratio of 5% or lower (almost no effect)) | P: Stellaria media, herbicidal effect grade [20]: 0 (Herbicidal ratio of 5% or lower (almost no effect)) | Q: Galium spurium, herbicidal effect grade [21]: 0 (Herbicidal ratio of 5% or lower (almost no effect)) | R: Veronica persica, herbicidal effect grade [22]: 2 (Herbicidal ratio of 20% or higher and lower than 40%) | b: directly sowed rice plant, effect on crop grade [23]: 5 (Herbicidal ratio of 90% or more (almost completely withered)) | e: wheat, effect on crop grade [24]: 4 (Herbicidal ratio of 70% or higher and lower than 90%) | f: beet, effect on crop grade [25]: 0 (Herbicidal ratio of 5% or lower (almost no effect))

CCC(=O)CC1CC(O)=C(c2c(C)cc(Br)cc2OC)C1=O (racemic) [14-002]
b (directly sowed rice plant) effect on crop grade [1]: 5 (Herbicidal ratio of 90% or more (almost completely withered)) | F: Digitaria ciliaris, herbicidal effect grade [2]: 5 (Herbicidal ratio of 90% or more (almost completely withered)) | H: Echinochloa crus-galli var. crus-galli, herbicidal effect grade [3]: 5 (Herbicidal ratio of 90% or more (almost completely withered)) | J: Alopecurus myosuroides, herbicidal effect grade [4]: 4 (Herbicidal ratio of 70% or higher and lower than 90%) | K: Lolium multiflorum Lam., herbicidal effect grade [5]: 5 (Herbicidal ratio of 90% or more (almost completely withered)) | P: Stellaria media, herbicidal effect grade [6]: 0 (Herbicidal ratio of 5% or lower (almost no effect)) | Q: Galium spurium, herbicidal effect grade [7]: 0 (Herbicidal ratio of 5% or lower (almost no effect)) | R: Veronica persica, herbicidal effect grade [8]: 0 (Herbicidal ratio of 5% or lower (almost no effect)) | c: corn, effect on crop grade [9]: 1 (Herbicidal ratio of 5% or higher and lower than 20%) | d: soybean, effect on crop grade [10]: 0 (Herbicidal ratio of 5% or lower (almost no effect)) | b: directly sowed rice plant, effect on crop grade [11]: 5 (Herbicidal ratio of 90% or more (almost completely withered)) | f: beet, effect on crop grade [12]: 0 (Herbicidal ratio of 5% or lower (almost no effect)) | g: rapeseed, effect on crop grade [13]: 0 (Herbicidal ratio of 5% or lower (almost no effect)) | F: Digitaria ciliaris, herbicidal effect grade [14]: 5 (Herbicidal ratio of 90% or more (almost completely withered)) | G: Setaria viridis, herbicidal effect grade [15]: 5 (Herbicidal ratio of 90% or more (almost completely withered)) | I: Avena fatua, herbicidal effect grade [16]: 5 (Herbicidal ratio of 90% or more (almost completely withered)) | L: Apera spica-venti, herbicidal effect grade [17]: 5 (Herbicidal ratio of 90% or more (almost completely withered)) | M: Abutilon theophrasti, herbicidal effect grade [18]: 4 (Herbicidal ratio of 70% or higher and lower than 90%) | O: Chenopodium album, herbicidal effect grade [19]: 0 (Herbicidal ratio of 5% or lower (almost no effect)) | P: Stellaria media, herbicidal effect grade [20]: 0 (Herbicidal ratio of 5% or lower (almost no effect)) | Q: Galium spurium, herbicidal effect grade [21]: 0 (Herbicidal ratio of 5% or lower (almost no effect)) | R: Veronica persica, herbicidal effect grade [22]: 0 (Herbicidal ratio of 5% or lower (almost no effect)) | b: directly sowed rice plant, effect on crop grade [23]: 4 (Herbicidal ratio of 70% or higher and lower than 90%) | e: wheat, effect on crop grade [24]: 3 (Herbicidal ratio of 40% or higher and lower than 70%) | f: beet, effect on crop grade [25]: 0 (Herbicidal ratio of 5% or lower (almost no effect))
